Data: ChEMBL document CHEMBL2073923, “Reversal of anticancer drug resistance by macrolide antibiotics in vitro and in vivo” (Clin Exp Pharmacol Physiol, 2000)

Tests used:
Assay type in all cases: functional, cell-based
[1] = target: T1, ATP-dependent translocase ABCB1 (Mus musculus, UniProt P21447); test: TP_TRANSPORTER: inhibition of Vinblastine efflux (Vinblastine: 0.002 uM, YM17K: 100 uM) in P388/S and P388/ADR cells
[2] = target: T1, ATP-dependent translocase ABCB1; test: TP_TRANSPORTER: inhibition of Cyclosporin A efflux (CsA: 0.005 uM, YM17K: 100 uM) in P388/S and P388/ADR cells
[3] = target: T1, ATP-dependent translocase ABCB1; test: TP_TRANSPORTER: inhibition of Cyclosporin A efflux (CsA: 0.005 uM, Clarithromycin: 100 uM) in P388/S and P388/ADR cells
[4] = target: T1, ATP-dependent translocase ABCB1; test: TP_TRANSPORTER: inhibition of Vinblastine efflux (Vinblastine: 0.002 uM, Clarithromycin: 100 uM) in P388/S and P388/ADR cells
[5] = target: T1, ATP-dependent translocase ABCB1; test: TP_TRANSPORTER: inhibition of Vinblastine efflux (Vinblastine: 0.002 uM, Josamycin: 100 uM) in P388/S and P388/ADR cells
[6] = target: T1, ATP-dependent translocase ABCB1; test: TP_TRANSPORTER: inhibition of Cyclosporin A efflux (CsA: 0.005 uM, Josamycin: 100 uM) in P388/S and P388/ADR cells
[7] = target: T1, ATP-dependent translocase ABCB1; test: TP_TRANSPORTER: inhibition of Vinblastine efflux (Vinblastine: 0.002 uM, FK-506: 10 uM) in P388/S and P388/ADR cells
[8] = target: T1, ATP-dependent translocase ABCB1; test: TP_TRANSPORTER: intracellular accumulation in P388/S and P388/ADR cells

T1 sequence (P21447 whole entry): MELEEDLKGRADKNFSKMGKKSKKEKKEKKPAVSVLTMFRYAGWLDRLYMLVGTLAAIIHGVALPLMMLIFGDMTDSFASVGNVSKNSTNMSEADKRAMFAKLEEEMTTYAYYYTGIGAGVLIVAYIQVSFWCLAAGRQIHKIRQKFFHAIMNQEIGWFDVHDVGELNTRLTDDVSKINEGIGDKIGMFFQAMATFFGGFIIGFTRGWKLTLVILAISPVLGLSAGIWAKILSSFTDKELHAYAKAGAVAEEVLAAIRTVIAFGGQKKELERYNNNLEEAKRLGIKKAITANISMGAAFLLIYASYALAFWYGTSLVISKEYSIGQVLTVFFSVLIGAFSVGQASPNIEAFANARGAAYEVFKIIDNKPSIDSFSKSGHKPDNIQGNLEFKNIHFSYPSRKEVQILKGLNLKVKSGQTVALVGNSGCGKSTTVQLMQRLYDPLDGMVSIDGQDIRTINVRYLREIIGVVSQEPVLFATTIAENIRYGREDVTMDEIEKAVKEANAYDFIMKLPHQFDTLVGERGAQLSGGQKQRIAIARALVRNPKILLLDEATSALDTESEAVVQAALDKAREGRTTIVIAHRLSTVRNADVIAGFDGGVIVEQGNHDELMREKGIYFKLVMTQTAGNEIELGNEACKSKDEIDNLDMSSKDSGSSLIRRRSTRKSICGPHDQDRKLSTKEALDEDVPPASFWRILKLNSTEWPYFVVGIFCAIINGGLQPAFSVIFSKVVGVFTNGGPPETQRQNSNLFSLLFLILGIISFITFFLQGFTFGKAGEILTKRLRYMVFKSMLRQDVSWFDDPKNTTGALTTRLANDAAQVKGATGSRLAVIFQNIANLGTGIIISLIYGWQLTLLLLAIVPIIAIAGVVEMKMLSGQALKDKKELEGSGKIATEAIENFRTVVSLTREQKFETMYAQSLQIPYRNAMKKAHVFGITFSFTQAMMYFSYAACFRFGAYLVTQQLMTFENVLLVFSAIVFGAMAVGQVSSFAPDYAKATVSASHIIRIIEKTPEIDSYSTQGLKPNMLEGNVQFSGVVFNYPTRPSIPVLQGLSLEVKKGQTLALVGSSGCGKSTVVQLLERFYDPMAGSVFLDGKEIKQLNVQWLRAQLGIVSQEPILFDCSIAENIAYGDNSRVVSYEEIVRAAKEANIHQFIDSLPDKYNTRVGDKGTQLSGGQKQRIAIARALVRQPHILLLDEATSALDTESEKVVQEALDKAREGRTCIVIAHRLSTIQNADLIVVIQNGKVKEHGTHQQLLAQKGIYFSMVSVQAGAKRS

CC[C@H]1OC(=O)CC[C@H](C)C(O[C@@H]2O[C@H](C)C[C@H](N(C)C)[C@H]2O)[C@@H](CC=O)C[C@@H](C)C(=O)/C=C/C(C)=C/[C@@H]1CO (stereo partly drawn)
Activity [1]: inhibitor [(at a rough estimate) 200 % of control]
Activity [2]: inhibitor [(at a rough estimate) 710 % of control]

CC[C@H]1OC(=O)[C@H](C)[C@@H](O[C@H]2C[C@@](C)(OC)[C@@H](O)[C@H](C)O2)[C@H](C)[C@@H](O[C@@H]2O[C@H](C)C[C@H](N(C)C)[C@H]2O)[C@](C)(OC)C[C@@H](C)C(=O)[C@H](C)[C@@H](O)[C@]1(C)O [CLARITHROMYCIN]
Activity [3]: inhibitor [(at a rough estimate) 820 % of control]
Activity [4]: inhibitor [(at a rough estimate) 250 % of control]

CO[C@@H]1[C@@H](O[C@@H]2O[C@H](C)[C@@H](O[C@H]3C[C@@](C)(O)[C@@H](OC(=O)CC(C)C)[C@H](C)O3)[C@H](N(C)C)[C@H]2O)[C@@H](CC=O)C[C@@H](C)[C@@H](O)/C=C/C=C/C[C@@H](C)OC(=O)C[C@H]1OC(C)=O [JOSAMYCIN]
Activity [5]: inhibitor [(at a rough estimate) 180 % of control]
Activity [6]: inhibitor [(at a rough estimate) 710 % of control]

C=CC[C@@H]1/C=C(\C)C[C@H](C)C[C@H](OC)[C@H]2O[C@@](O)(C(=O)C(=O)N3CCCC[C@H]3C(=O)O[C@H](/C(C)=C/[C@@H]3CC[C@@H](O)[C@H](OC)C3)[C@H](C)[C@@H](O)CC1=O)[C@H](C)C[C@@H]2OC [TACROLIMUS ANHYDROUS]
Activity [7]: inhibitor [(at a rough estimate) 230 % of control]

CC[C@]1(O)C[C@@H]2CN(CCc3c([nH]c4ccccc34)[C@@](C(=O)OC)(c3cc4c(cc3OC)N(C)[C@H]3[C@@](O)(C(=O)OC)[C@H](OC(C)=O)[C@]5(CC)C=CCN6CC[C@]43[C@@H]65)C2)C1 [VINBLASTINE]
Activity [8]: substrate [+]
